Values quoted from earlier work as cited in US11957650B2, “Formulation and method for the prevention and/or treatment of hangover symptoms” (PHOENIX PHARMACEUTICALS AUSTRALIA PTY LTD, priority 2016, dated 2024).

Test system: acetaldehyde poisoning in rats
Settings: for Effective dose in rats: footnotes * and † not given

Row | SMILES | Effective dose in rats [mg] | mortality due to acetaldehyde poisoning (L-cysteine alone [13, 14]) | mortality in rats poisoned with acetaldehyde, thiamine added to L-cysteine (addition of thiamine to L-cysteine [13, 14])
1 | O=C1O[C@H]([C@@H](O)CO)C(O)=C1O [Ascorbic acid] | 50 | – | –
2 | N[C@@H](CS)C(=O)O [L-cysteine] | 34 | markedly reduce the mortality | –
3 | Cc1ncc(C[n+]2csc(CCO)c2C)c(N)n1.Cl.[Cl-] [Thiamine•HCl] | 42 | – | –
4 | Cc1ncc(C[n+]2csc(CCO)c2C)c(N)n1 [thiamine, Thiamine] | – | – | enhanced the ability of L-cysteine to reduce mortality
